Measured values taken from PubChem BioAssay (NCI).
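Test compounds were applied to cells in 96-well plates for 48 hours at 5 doses. TGI: total growth inhibition.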

How the values were obtained:
Assay in all cases: inhibition of tumour cell growth, NCI panel, 48 h
HL-60(TB) leukemia = test system: HL-60(TB) leukemia
HCT-116 colon = test system: HCT-116 colon
SK-MEL-28 melanoma = test system: SK-MEL-28 melanoma
SK-MEL-2 melanoma = test system: SK-MEL-2 melanoma
CCRF-CEM leukemia = test system: CCRF-CEM leukemia
SR leukemia = test system: SR leukemia
COLO 205 colon = test system: COLO 205 colon
UACC-257 melanoma = test system: UACC-257 melanoma
HT29 colon = test system: HT29 colon
OVCAR-4 ovarian = test system: OVCAR-4 ovarian
SW-620 colon = test system: SW-620 colon
KM12 colon = test system: KM12 colon
BT-549 breast = test system: BT-549 breast
PC-3 prostate = test system: PC-3 prostate
SN12C renal = test system: SN12C renal
ACHN renal = test system: ACHN renal
786-0 renal = test system: 786-0 renal
HOP-92 NSCLC = test system: HOP-92 NSCLC
SF-268 CNS = test system: SF-268 CNS
SK-OV-3 ovarian = test system: SK-OV-3 ovarian
NCI-H226 lung = test system: NCI-H226 lung
OVCAR-3 ovarian = test system: OVCAR-3 ovarian
RPMI-8226 leukemia = test system: RPMI-8226 leukemia
MDA-N = test system: MDA-N
DU-145 prostate = test system: DU-145 prostate
M14 melanoma = test system: M14 melanoma
K-562 leukemia = test system: K-562 leukemia
SF-539 CNS = test system: SF-539 CNS
MOLT-4 leukemia = test system: MOLT-4 leukemia
U251 CNS = test system: U251 CNS
EKVX NSCLC = test system: EKVX NSCLC
TK-10 renal = test system: TK-10 renal
IGROV1 ovarian = test system: IGROV1 ovarian
A498 renal = test system: A498 renal
A549 NSCLC = test system: A549 NSCLC
NCI-H522 lung = test system: NCI-H522 lung
HS 578T breast = test system: HS 578T breast
OVCAR-8 ovarian = test system: OVCAR-8 ovarian
OVCAR-5 ovarian = test system: OVCAR-5 ovarian
MDA-MB-435 = test system: MDA-MB-435
UO-31 renal = test system: UO-31 renal
NCI-H23 lung = test system: NCI-H23 lung
NCI/ADR-RES ovarian = test system: NCI/ADR-RES ovarian
MALME-3M melanoma = test system: MALME-3M melanoma
MDA-MB-231 breast = test system: MDA-MB-231 breast
NCI-H460 lung = test system: NCI-H460 lung
LOX IMVI melanoma = test system: LOX IMVI melanoma
SF-295 CNS = test system: SF-295 CNS
SK-MEL-5 melanoma = test system: SK-MEL-5 melanoma
HOP-62 NSCLC = test system: HOP-62 NSCLC
UACC-62 melanoma = test system: UACC-62 melanoma
SNB-19 CNS = test system: SNB-19 CNS
HCT-15 colon = test system: HCT-15 colon
CAKI-1 renal = test system: CAKI-1 renal
T-47D breast = test system: T-47D breast
RXF 393 renal = test system: RXF 393 renal
HCC-2998 colon = test system: HCC-2998 colon
MCF7 breast = test system: MCF7 breast
SNB-75 CNS = test system: SNB-75 CNS

`O=C1CCSSCCC(=O)NCCN1` gave a TGI (HL-60(TB) leukemia) greater than 100 µM, a TGI (HCT-116 colon) greater than 100 µM and a TGI (SK-MEL-28 melanoma) greater than 100 µM. For the same compound, the TGI (SK-MEL-2 melanoma) was greater than 100 µM, the TGI (CCRF-CEM leukemia) was greater than 100 µM and the TGI (SR leukemia) was greater than 100 µM. For the same compound, the TGI (COLO 205 colon) was greater than 100 µM, the TGI (UACC-257 melanoma) was greater than 100 µM and the TGI (HT29 colon) was greater than 100 µM. It also gave a TGI (OVCAR-4 ovarian) greater than 100 µM, a TGI (SW-620 colon) greater than 100 µM and a TGI (KM12 colon) greater than 100 µM. For the same compound, the TGI (BT-549 breast) was greater than 100 µM, the TGI (PC-3 prostate) was greater than 100 µM and the TGI (SN12C renal) was greater than 100 µM. It also gave a TGI (ACHN renal) greater than 100 µM, a TGI (786-0 renal) greater than 100 µM and a TGI (HOP-92 NSCLC) greater than 100 µM. The TGI (SF-268 CNS) was greater than 100 µM, the TGI (SK-OV-3 ovarian) was greater than 100 µM and the TGI (NCI-H226 lung) was greater than 100 µM. The TGI (OVCAR-3 ovarian) was greater than 100 µM, the TGI (RPMI-8226 leukemia) was greater than 100 µM and the TGI (MDA-N) was greater than 100 µM. It also gave a TGI (DU-145 prostate) greater than 100 µM, a TGI (M14 melanoma) greater than 100 µM and a TGI (K-562 leukemia) greater than 100 µM. It also gave a TGI (SF-539 CNS) greater than 100 µM, a TGI (MOLT-4 leukemia) greater than 100 µM and a TGI (U251 CNS) greater than 100 µM. It also gave a TGI (EKVX NSCLC) greater than 100 µM, a TGI (TK-10 renal) greater than 100 µM and a TGI (IGROV1 ovarian) greater than 100 µM. The TGI (A498 renal) was greater than 100 µM, the TGI (A549 NSCLC) was greater than 100 µM and the TGI (NCI-H522 lung) was greater than 100 µM. It also gave a TGI (HS 578T breast) greater than 100 µM, a TGI (OVCAR-8 ovarian) greater than 100 µM and a TGI (OVCAR-5 ovarian) greater than 100 µM. The TGI (MDA-MB-435) was greater than 100 µM, the TGI (UO-31 renal) was greater than 100 µM and the TGI (NCI-H23 lung) was greater than 100 µM. It also gave a TGI (NCI/ADR-RES ovarian) greater than 100 µM, a TGI (MALME-3M melanoma) greater than 100 µM and a TGI (MDA-MB-231 breast) greater than 100 µM. For the same compound, the TGI (NCI-H460 lung) was greater than 100 µM, the TGI (LOX IMVI melanoma) was greater than 100 µM and the TGI (SF-295 CNS) was greater than 100 µM. For the same compound, the TGI (SK-MEL-5 melanoma) was greater than 100 µM, the TGI (HOP-62 NSCLC) was greater than 100 µM and the TGI (UACC-62 melanoma) was greater than 100 µM. It also gave a TGI (SNB-19 CNS) greater than 100 µM, a TGI (HCT-15 colon) greater than 100 µM and a TGI (CAKI-1 renal) greater than 100 µM. For the same compound, the TGI (T-47D breast) was greater than 100 µM and the TGI (RXF 393 renal) was greater than 100 µM.
With `C=C(C)CCC(=O)[C@](C)(O)[C@H]1[C@H](O)C[C@@]2(C)[C@@H]3CCc4c(cc(OC5OC(CO)C(O)C(O)C5O)c(O)c4C)C3(C)C(=O)C[C@]12C` (some centres undefined) the TGI (HCT-116 colon) was greater than 100 µM, the TGI (SK-MEL-28 melanoma) was greater than 100 µM and the TGI (SK-MEL-2 melanoma) was greater than 100 µM. The TGI (CCRF-CEM leukemia) was greater than 100 µM, the TGI (SR leukemia) was greater than 100 µM and the TGI (COLO 205 colon) was greater than 100 µM. For the same compound, the TGI (UACC-257 melanoma) was greater than 100 µM, the TGI (HCC-2998 colon) was greater than 100 µM and the TGI (HT29 colon) was greater than 100 µM. For the same compound, the TGI (OVCAR-4 ovarian) was greater than 100 µM, the TGI (SW-620 colon) was greater than 100 µM and the TGI (KM12 colon) was greater than 100 µM. The TGI (BT-549 breast) was greater than 100 µM, the TGI (PC-3 prostate) was greater than 100 µM and the TGI (SN12C renal) was greater than 100 µM. For the same compound, the TGI (ACHN renal) was greater than 100 µM, the TGI (786-0 renal) was greater than 100 µM and the TGI (HOP-92 NSCLC) was greater than 100 µM. The TGI (SF-268 CNS) was greater than 100 µM, the TGI (SK-OV-3 ovarian) was greater than 100 µM and the TGI (NCI-H226 lung) was greater than 100 µM. The TGI (OVCAR-3 ovarian) was greater than 100 µM, the TGI (MDA-N) was greater than 100 µM and the TGI (DU-145 prostate) was greater than 100 µM. It also gave a TGI (M14 melanoma) greater than 100 µM, a TGI (K-562 leukemia) greater than 100 µM and a TGI (SF-539 CNS) greater than 100 µM. It also gave a TGI (MOLT-4 leukemia) greater than 100 µM, a TGI (U251 CNS) greater than 100 µM and a TGI (EKVX NSCLC) greater than 100 µM. It also gave a TGI (TK-10 renal) greater than 100 µM, a TGI (IGROV1 ovarian) greater than 100 µM and a TGI (A498 renal) greater than 100 µM. The TGI (A549 NSCLC) was greater than 100 µM, the TGI (NCI-H522 lung) was greater than 100 µM and the TGI (OVCAR-8 ovarian) was greater than 100 µM. The TGI (OVCAR-5 ovarian) was greater than 100 µM, the TGI (MCF7 breast) was greater than 100 µM and the TGI (MDA-MB-435) was greater than 100 µM. The TGI (UO-31 renal) was greater than 100 µM, the TGI (NCI-H23 lung) was greater than 100 µM and the TGI (NCI/ADR-RES ovarian) was greater than 100 µM. The TGI (MALME-3M melanoma) was greater than 100 µM, the TGI (MDA-MB-231 breast) was greater than 100 µM and the TGI (NCI-H460 lung) was greater than 100 µM. The TGI (LOX IMVI melanoma) was greater than 100 µM, the TGI (SNB-75 CNS) was greater than 100 µM and the TGI (SF-295 CNS) was greater than 100 µM. For the same compound, the TGI (SK-MEL-5 melanoma) was greater than 100 µM, the TGI (HOP-62 NSCLC) was greater than 100 µM and the TGI (UACC-62 melanoma) was greater than 100 µM. The TGI (SNB-19 CNS) was greater than 100 µM, the TGI (HCT-15 colon) was greater than 100 µM and the TGI (CAKI-1 renal) was greater than 100 µM. It also gave a TGI (T-47D breast) greater than 100 µM and a TGI (RXF 393 renal) greater than 100 µM.
Work on `CCCCn1c2c(n(CCCC)c1=S)-c1c(n(CCCC)c(=S)n1CCCC)S[Se][Se]S2` yielded a TGI (HCT-116 colon) of 16.9 µM, a TGI (SK-MEL-28 melanoma) greater than 61.4 µM and a TGI (SK-MEL-2 melanoma) greater than 55.6 µM. The TGI (CCRF-CEM leukemia) was greater than 46.6 µM, the TGI (SR leukemia) was greater than 100 µM and the TGI (COLO 205 colon) was 3.87 µM. For the same compound, the TGI (UACC-257 melanoma) was 30.8 µM, the TGI (HCC-2998 colon) was 61.6 µM and the TGI (HT29 colon) was 32.5 µM. The TGI (OVCAR-4 ovarian) was greater than 37.4 µM, the TGI (SW-620 colon) was 6.64 µM and the TGI (KM12 colon) was greater than 53.5 µM. The TGI (BT-549 breast) was 35.5 µM, the TGI (PC-3 prostate) was greater than 34.2 µM and the TGI (SN12C renal) was 99.1 µM. The TGI (ACHN renal) was 14.2 µM, the TGI (786-0 renal) was greater than 43.9 µM and the TGI (HOP-92 NSCLC) was 9.51 µM. For the same compound, the TGI (SF-268 CNS) was greater than 83.4 µM, the TGI (SK-OV-3 ovarian) was 55.1 µM and the TGI (NCI-H226 lung) was 49.4 µM. The TGI (OVCAR-3 ovarian) was 7.84 µM, the TGI (RPMI-8226 leukemia) was greater than 35.3 µM and the TGI (MDA-N) was 36.3 µM. The TGI (DU-145 prostate) was greater than 60.4 µM, the TGI (M14 melanoma) was 31.7 µM and the TGI (K-562 leukemia) was greater than 100 µM. For the same compound, the TGI (SF-539 CNS) was 12.5 µM, the TGI (MOLT-4 leukemia) was greater than 37.2 µM and the TGI (U251 CNS) was 16.9 µM. It also gave a TGI (EKVX NSCLC) of 24.3 µM, a TGI (TK-10 renal) of 30.5 µM and a TGI (IGROV1 ovarian) of 9.16 µM. The TGI (A498 renal) was greater than 100 µM, the TGI (A549 NSCLC) was greater than 88.7 µM and the TGI (NCI-H522 lung) was 0.479 µM. For the same compound, the TGI (HS 578T breast) was 44.2 µM, the TGI (OVCAR-8 ovarian) was 29.9 µM and the TGI (OVCAR-5 ovarian) was 6.72 µM. It also gave a TGI (MCF7 breast) greater than 100 µM, a TGI (MDA-MB-435) of 39.1 µM and a TGI (UO-31 renal) of 9.02 µM. For the same compound, the TGI (NCI-H23 lung) was 41.5 µM, the TGI (NCI/ADR-RES ovarian) was 53 µM and the TGI (MALME-3M melanoma) was 5.09 µM. It also gave a TGI (MDA-MB-231 breast) of 7.59 µM, a TGI (NCI-H460 lung) greater than 80 µM and a TGI (LOX IMVI melanoma) of 27.2 µM. It also gave a TGI (SNB-75 CNS) of 31.5 µM, a TGI (SF-295 CNS) of 30.5 µM and a TGI (SK-MEL-5 melanoma) of 19.6 µM. For the same compound, the TGI (HOP-62 NSCLC) was 35.1 µM, the TGI (UACC-62 melanoma) was 22.3 µM and the TGI (SNB-19 CNS) was greater than 76.4 µM. For the same compound, the TGI (HCT-15 colon) was 15.9 µM, the TGI (T-47D breast) was 2.04 µM and the TGI (RXF 393 renal) was 25.4 µM.
